According to ChEMBL document CHEMBL3994561 (Medchemcomm, 2016):
pIC50: −log10 of the molar value. Calls of active or inactive are those of the source. The calls are words filed in the database; no cut-off is given here.

Columns and labels:
[1] = tested on: NALM-6; assay: Cytotoxicity against human NALM6 cells after 48 hrs by MTT assay; type: functional, cell-based; details: NALM-6, 48 h
[2] = tested on: MCF7; assay: Cytotoxicity against human MCF7 cells after 48 hrs by MTT assay; type: functional, cell-based; details: MCF7, 48 h
[3] = tested on: HL-60; assay: Cytotoxicity against human HL60 cells after 48 hrs by MTT assay; type: functional, cell-based; details: HL-60, 48 h
[4] = Selectivity index, ratio of IC50 for human MCF10A cells to IC50 for human MCF7 cells; type: functional
[5] = tested on: MCF7; assay: Cell cycle arrest in human MCF7 cells assessed as accumulation at G2/M phase at 12.76 +/- 0.46 uM after 24 hrs by propidium iodide staining-based flow cytometric analysis (reference value: 20.3%); type: functional
[6] = tested on: MCF7; assay: Induction of apoptosis in human MCF7 cells assessed as upregulation of Bax mRNA level at 12.76 +/- 0.46 uM by quantitative real-time PCR method; type: functional, cell-based
[7] = tested on: MCF7; assay: Induction of apoptosis in human MCF7 cells assessed as late apoptotic cells at 12.76 +/- 0.46 uM after 24 hrs by annexin V-FITC/propidium iodide staining-based flow cytometric method (reference value: 10.1 +/- 0.2%); type: functional
[8] = tested on: MCF7; assay: Induction of apoptosis in human MCF7 cells assessed as viable cells at 12.76 +/- 0.46 uM after 24 hrs by annexin V-FITC/propidium iodide staining-based flow cytometric method (reference value: 83.4%); type: functional
[9] = tested on: MCF7; assay: Cell cycle arrest in human MCF7 cells assessed as accumulation at S phase at 12.76 +/- 0.46 uM after 24 hrs by propidium iodide staining-based flow cytometric analysis (reference value: 25.9%); type: functional
[10] = tested on: MCF7; assay: Disruption of mitochondrial membrane potential in human MCF7 cells assessed as intact mitochondrial membrane at 12.76 +/- 0.46 uM after 24 hrs by JC10 staining-based flow cytometric method (reference value: 76.1%); type: functional
[11] = tested on: MCF7; assay: Induction of apoptosis in human MCF7 cells assessed as downregulation of Bcl-2 mRNA level at 12.76 +/- 0.46 uM by quantitative real-time PCR method; type: functional, cell-based
[12] = Selectivity index, ratio of IC50 for human MCF10A cells to IC50 for human NALM6 cells; type: functional
[13] = tested on: MCF-10A; assay: Cytotoxicity against human MCF10A cells after 48 hrs by MTT assay; type: cell-based
[14] = tested on: MCF7; assay: Cell cycle arrest in human MCF7 cells assessed as accumulation at G0/G1 phase at 12.76 +/- 0.46 uM after 24 hrs by propidium iodide staining-based flow cytometric analysis (reference value: 52.2%); type: functional
[15] = Selectivity index, ratio of IC50 for human MCF7 cells to IC50 for human MCF10A cells; type: functional
[16] = tested on: MCF7; assay: Induction of apoptosis in human MCF7 cells assessed as early apoptotic cells at 12.76 +/- 0.46 uM after 24 hrs by annexin V-FITC/propidium iodide staining-based flow cytometric method (reference value: 1.7%); type: functional
[17] = tested on: MCF7; assay: Cell cycle arrest in human MCF7 cells assessed as accumulation at sub G0/G1 phase at 12.76 +/- 0.46 uM after 24 hrs by propidium iodide staining-based flow cytometric analysis (reference value: 1.3%); type: functional
[18] = tested on: MCF7; assay: Induction of apoptosis in human MCF7 cells assessed as upregulation of caspase-3 mRNA level at 12.76 +/- 0.46 uM by quantitative real-time PCR method; type: functional, cell-based
[19] = tested on: HUVEC; assay: Cytotoxicity against human HUVEC cells after 48 hrs by MTT assay; type: cell-based
[20] = tested on: MCF7; assay: Induction of apoptosis in human MCF7 cells assessed as necrotic cells at 12.76 +/- 0.46 uM after 24 hrs by annexin V-FITC/propidium iodide staining-based flow cytometric method (reference value: 4.1%); type: functional
[21] = tested on: MCF7; assay: Cytotoxicity against human MCF7 cells after 24 hrs by MTT assay; type: functional, cell-based; details: MCF7, 24 h
[22] = tested on: MCF7; assay: Disruption of mitochondrial membrane potential in human MCF7 cells assessed as collapse of the mitochondrial membrane potential at 12.76 +/- 0.46 uM after 24 hrs by JC10 staining-based flow cytometric method (reference value: 23.9%); type: functional

For `C=C1C(=O)Oc2ccccc2[C@H]1[C@@H]1CCCC1=O`, the pIC50 [1] was 3.31, the pIC50 [2] was 4.83 and the pIC50 [3] was 3.24.
With `C=C1C(=O)Oc2ccc(Cl)cc2[C@H]1[C@@H]1CCc2cc(OC)ccc2C1=O` (relative stereo) the pIC50 [1] was 5.80, the pIC50 [2] was 4.11 and the pIC50 [3] was 5.25.
For `C=C1C(=O)Oc2ccccc2[C@H]1[C@@H]1Cc2cc(OC)ccc2C1=O` (relative stereo), the pIC50 [1] was 6.19, the pIC50 [2] was 4.11 and the pIC50 [3] was 5.26.
`C=C1C(=O)Oc2c(OC)cccc2[C@H]1[C@@H]1CCCC1=O` (relative stereo) gave a pIC50 [1] of 3.11, a pIC50 [2] of 4.82 and a pIC50 [3] of 3.15.
`C=C1C(=O)Oc2c(OC)cccc2C1CC(C)=O` (configuration not stated) showed a pIC50 [1] of 4.14, a pIC50 [2] of 4.98 and a pIC50 [3] of 4.04.
In the case of `C=C1C(=O)Oc2ccccc2[C@H]1[C@@H]1COCCC1=O` (relative stereo), the pIC50 [1] was 4.87, the pIC50 [2] was 4.58 and the pIC50 [3] was 4.37.
In the case of `C=C1C(=O)Oc2ccc(Cl)cc2[C@H]1[C@@H]1CCCC1=O` (relative stereo), the pIC50 [1] was under 3.00, the pIC50 [2] was 4.64 and the pIC50 [3] was 3.29.
`C=C1C(=O)Oc2ccc(Cl)cc2[C@H]1[C@@H]1Cc2ccccc2C1=O` (relative stereo) showed a pIC50 [1] of 5.18, a pIC50 [2] of 4.82 and a pIC50 [3] of 5.13.
In the case of `C=C1C(=O)Oc2ccccc2[C@H]1[C@@H]1CCc2cc(OC)ccc2C1=O` (relative stereo), the pIC50 [1] was 6.29, the pIC50 [2] was 4.12 and the pIC50 [3] was 5.28.
Work on `C=C1C(=O)Oc2c(OC)cccc2[C@H]1[C@@H]1Cc2ccccc2C1=O` (relative stereo) yielded a pIC50 [1] of 5.33, a pIC50 [2] of 5.07 and a pIC50 [3] of 5.25.
With `C=C1C(=O)Oc2c(OC)cccc2[C@H]1[C@@H]1CCCCC1=O` (relative stereo) the pIC50 [1] was 5.38, the “Ratio IC50” value [4] was 2 and the Activity [5] was 16.5%. For the same molecule, the Activity [6] was “Active”, the Activity [7] was 28.7% and the Activity [8] was 64%. For the same molecule, the Activity [9] was 29.7%, the Activity [10] was 47.5% and the Activity [11] was “Active”. For the same molecule, the pIC50 [2] was 5.06, the “Ratio IC50” value [12] was 5 and the pIC50 [13] was 4.78. The Activity [14] was 36%, the “Ratio IC50” value [15] was 5 and the Activity [16] was 2.2%. The Activity [17] was 17.9%, the Activity [18] was “Active” and the pIC50 [19] was 5.33. For the same molecule, the Activity [20] was 5%, the pIC50 [21] was 4.89 and the pIC50 [3] was 5.22. The Activity [22] was 52.5%.
`C=C1C(=O)Oc2ccccc2C1CC(C)=O` (configuration not stated) showed a pIC50 [1] of 4.03, a pIC50 [2] of 4.94 and a pIC50 [3] of 4.08.
With `C=C1C(=O)Oc2ccccc2[C@H]1[C@@H]1CCCCC1=O` the pIC50 [1] was 4.07, the pIC50 [2] was 5.10 and the pIC50 [3] was 3.20.
With `C=C1C(=O)Oc2ccccc2[C@H]1[C@@H]1Cc2ccccc2C1=O` the pIC50 [1] was 3.15, the pIC50 [2] was 4.77 and the pIC50 [3] was 3.61.
Work on `C=C1C(=O)Oc2c(OC)cccc2[C@H]1[C@@H]1CCc2cc(OC)ccc2C1=O` (relative stereo) yielded a pIC50 [1] of 6.06, a pIC50 [2] of 4.76 and a pIC50 [13] of 4.87. For the same molecule, the pIC50 [19] was 5.31 and the pIC50 [3] was 5.44.
For `C=C1C(=O)Oc2ccc(Cl)cc2[C@H]1[C@@H]1CCCCC1=O` (relative stereo), the pIC50 [1] was 4.02, the pIC50 [2] was 5.46 and the pIC50 [3] was 4.07.
With `C=C1C(=O)Oc2ccc(Cl)cc2C1CC(C)=O` (configuration not stated) the pIC50 [1] was 3.37, the pIC50 [2] was 4.79 and the pIC50 [3] was 3.54.
